The source of these data is patent US5653957A, “Halogenated sulfidohydroboranes for nuclear medicine and boron neutron capture therapy” (Associated Universities, Inc., priority 1996, dated 1997).

Data set [1] relates to mice. As to the kind of experiment: Subacute toxicity in mice judged by hematological and chemical tests of the blood 5 days after i.p. injection. Format: in vivo, female mice (BNL Hale-Stoner strain). On the procedure: C) 0.9% NaCl in water (saline) (7 mice).
Injection volumes were all 0.015 mL/gbw.
Inadvertently,the BSSB group (Group A) received 17 μg ^10 B/gbw, only about one-third of the intended boron dose, 50 μg/gbw. Nevertheless, it is useful to compare the subacute toxicity of a relatively high dose of a substance, IBSSB, which had never before been tested in an animal, with that of its parent compound, BSSB, which is known to be non-lethal at about 35 μg B/gbw, i.e., twice the lower of the two boron doses used See Slatkin et al., "Boron Uptake in Melanoma, Cerebrum and Blood from Na2 B12 H11 SH and Na4 B24 H22 S2 Administered to Mice", Biochem. Pharm., 35, 1771 (1986).
See Miura et al., "Biodistribution and Toxicity of 2,4-Divinyl-nido-carboranyldeuterophorphyrin IX in Mice". Biochem. Pharm., 43, 467 (1992). It therefore appears that the periodinated borane is not more toxic than the non-iodinated borane.

For data set [2] the following is noted: mouse, in vivo.
Experimental: Three groups of female mice (BNL Hale-Stoner strain) were given a single intraperitoneal (i.p.) injection of:
Injection volumes were all 0.015 mL/gbw. Five days after the injection, mice were euthanized by deep halothane inhalation anesthesia. Thoracotomy was performed, and about 0.7-0.9 mL blood was removed through the right ventricle. Hematological and chemical analyses were performed on blood specimens from each mouse.
(mg/dL), blood urea nitrogen [BUN] (mg/dL), blood creatinine [BCR] (mg/dL) aspartate transaminase [AST] (U/L), alanine transaminase [ALT] (U/L), alkaline phosphatase [ALP] (U/L), creatine phosphokinase [CPK] (U/L), total protein [TPR] (g/dL), albumin [ALB] (g/dL), calcium [CA] (mg/dL), chloride [CHL] (meg/L), inorganic phosphorus [P] (mg/dL), potassium [K] (meg/L), and sodium [SOD] (meg/L) .
For data set [3], the system named is mice. The settings on record: at about 35 μg B/gbw; cited from earlier work.
The next data set deals with brain tumors. Conditions: mouse, in vivo; cited from earlier work.

Take “periodinated dimeric sulfidohydrododecaborane [IBSSB]”: in the data set with mice [1] (mouse, in vivo), the “fourteen chemical and thirteen hematological tests, BSSB (Group A) vs IBSSB (Group B)” value is listed as “no significant differences between the two groups”; the hepatotoxicity result is given as “may be slightly hepatotoxic to mice”; the “other differences between mice in groups B and C” value is on record as “No other differences were noted”; the significant toxicity result is “no evidence of significant toxicity”. For the same substance, the “toxicity judged by hematological and chemical tests of the blood, vs BSSB” value with mice [1] (single i.p. 50 μg B/gbw, vs three-fold less BSSB, 5 days later) was “only minimally more toxic”. In data set [2], the “alanine transaminase [ALT]” value is listed as 22 U/L, the “albumin [ALB]” value is reported as 3.3 g/dL, the “alkaline phosphatase [ALP]” value was 110 U/L and the “aspartate transaminase [AST]” value amounted to 44 U/L. Further, in data set [2], the “blood creatinine [BCR]” value stood at 0.5 mg/dL, the “blood urea nitrogen [BUN]” value was 28 mg/dL, the “calcium [CA]” value worked out at 11.5 mg/dL and the “chloride [CHL]” value is given as 116 meg/L. In data set [2], the “creatine phosphokinase [CPK]” value was 35 U/L, the “glucose [GLU]” value was found to be 278 mg/dL, the “inorganic phosphorus [P]” value turned out to be 9.9 mg/dL and the “potassium [K]” value is given as 7.1 meg/L. For the same substance, in data set [2], the “sodium [SOD]” value was 154 meg/L and the “total protein [TPR]” value amounted to 5.9 g/dL.
BSSB: the “fourteen chemical and thirteen hematological tests, BSSB (Group A) vs IBSSB (Group B)” value in the data set on mice [1] (mouse, in vivo) is listed as “no significant differences between the two groups”. The lethality result in the data set on mice [3] is on record as “non-lethal”. Also, the “accumulation in brain tumors vs the monomeric form” value in the data set with brain tumors is listed as “more readily accumulated in brain tumors than the monomeric form”.
